# “Also recorded” adds a separate entry of the source. Residues, ends and D or L forms follow the SMILES beside them. *: point of attachment. Cbz = O=C(OCc1ccccc1)*; CH2F = FC*
# Columns and labels:
# [1] = tested on: NIH 3T3; experiment: Glutamine uptake rate in NIH 3T3 cells; assay type: cell-based
# Protocol: (§1) All together, these experiments discovered a uniform metabolic response for podocytes that are injured.
# (§2) Cells, antibodies, and standard techniques: Mouse podocyte cell lines (15) and HEK 293 cells (6) were grown as described previously. NIH 3T3 cells were cultured in Dulbecco's modified Eagle's minimal essential medium (Invitrogen, Carlsbad, Calif.) supplemented with 10% fetal calf serum (Invitrogen) and incubated in a humidified atmosphere of 95% air and 5% CO2 at 37° C. Antibody used for immunostaining are Alexa Fluor 594 phalloidin (Molecular Probes, Eugene, Oreg.). Subcellular fractionation was performed as described previously (6).
# [2] = tested on: HEK293; experiment: Glutamine uptake rate in HEK293 cells; assay type: cell-based
# Protocol: as §1, §2
# [3] = tested on: podocytes; experiment: Glutamine uptake rate in cultured podocytes; assay type: cell-based, mouse; conditions: injury stimulus
# Excerpt: A podocyte metabolic model was constructed based on available databases as well as mRNA and protein expression data extracted from podocytes. The following podocyte culture models were employed: wildtype (control), LPS and PAN stimulated podocytes (inducible injury models) as well as podocytes with genetic deletion of the alpha3 gene (genetic disease model). All injury cultures increase the uptake of glutamine as well as gluconeogenic aminoacids. In addition, there is increasing ammonia production in diseased podocytes. These changes were predicted by the podocyte metabolic model and confirmed by measuring directly amino acids and ammonia (FIGS. 1A-1D).
# Metabolic Flux Analysis emphasizes glutamine utilization pathways for podocyte function: We utilized cultured normal podocytes (control) (15) and three in vitro models for podocyte damage: i) podocytes with α3 integrin deletion (genetic model) (16); ii) podocytes treated with lipopolysaccharides (LPS, immunological model) (17); and iii) podocytes treated with puromycin aminonucleoside (PAN, toxic model) (18). […] Using the podocyte MFA network, we were able to extract podocyte aminoacid and glucose utilization (FIG. 10b-d) that was also independently measured in direct validation studies (data not shown). All analyzed modeling and experimentation data supported the notion that the aminoacid metabolism of podocytes is changed in disease. […]
# [4] = tested on: cathepsin L; experiment: Cathepsin L activity in cultured podocytes, CV-(FR)2 substrate; assay type: cell-based, mouse
# Protocol: Subcellular sites of cathepsin L and cathepsin B activity in glomerular extracts were visualized by a fluorogenic substrate, CV-(FR)2, which emits light upon cleavage by cathepsin L or cathepsin B (Biomol).
# Measurement of cathepsin L activity: Cathepsin L activities in cultured podocytes and in glomeruli was measured using CV-CatL detection kit (Biomol, Plymouth Meeting, Pa.) as described in the manufacturer's instructions. The fluorophore cresyl violet [CV-(FR)2] substrate becomes florescent after Cat L cleavage of the attached Phe-Arg groups. This substrate easily penetrates the cell membrane and the membranes of the internal cellular organelles, enabling the detection of cathepsin activity within living podocytes.
# [5] = tested on: cathepsin B; conditions: cited from earlier work
# [6] = tested on: podocytes; experiment: Intracellular pH of cultured podocytes by CMFDA fluorescence; assay type: cell-based, mouse; conditions: glutamine present vs absent in culture medium; normal and α3 integrin deficient podocytes
# Protocol: Podocyte pH was assessed with CMFDA—an indicator for pH. Higher green signal is consistent with a more alkaline cell. The presence of high glutamine levels in cell culture media alkalinizes the normal podocytes as well as podocytes that lack integrin α3β1 (genetic model cells for podocyte disease) (FIG. 3A). Both, LPS and PAN treatment stimulate cathepsin L activity in podocytes. Cathepsin L activity is lower in the presence of high glutamine in the cell culture media that in turn leads to a more alkaline podocyte cytosol (FIGS. 3B, 3C).
# Modification of intracellular pH by glutamine: One of the key feature in podocyte injury that can be found in all three employed cellular podocyte models is the induction of cytosolic cathepsin L that in turn cleaves critical regulators of the podocyte microfilament system resulting in a reorganization of the podocyte actin cytoskeleton and proteinuria (6). In contrast to lysosomal cathepsin L, cytosolic cathepsin L is operating under non-acidic conditions. […] We used a fluorescent dye CMFDA (5-chloromethylfluorescein diacetate) that captures changes in intracellular pH by alterations in fluorescence (25). The more alkaline the pH, the more green fluorescence is detected (FIGS. 11a-c). […] Using CMFDA, the pH in control cells was determined at 7.1 and at 7.3 in α3 integrin-KO podocytes. […]
# [7] = tested on: C57BL/6 mice; experiment: LPS-induced proteinuria model in mice; assay type: in vivo, mouse; conditions: for glomerular pH (CMFDA fluorescence of isolated glomeruli): glutamine 0.75 mg/g
# Protocol: Treatment of mice with glutamine increases podocyte pH and protects from LPS-induced proteinuria: In order to translate our in vitro findings into a kidney disease relevant model, we next utilized the LPS model in mice known to cause podocyte foot process effacement and proteinuria driven by induction of cytosolic cathepsin L (6). To this end, mice were either injected with only LPS or treated with high dose (0.75 mg/g) glutamine injection 10 min after LPS administration. We analyzed the relative alkalinity of glomeruli using isolated glomeruli that were incubated with green CMFDA. […] We also tested renal function and measured proteinuria in these mice. […] These effects were also visible on an ultrastructural level.
# (§3) Immunohistochemistry and immunoelectron microscopy: For immunofluorescent labeling, sections were washed once with PBS and incubated with blocking solution (2% FCS, 2% BSA, 0.2% fish gelatin) for 30 min at room temperature before further incubation with the primary antibody for 1 h at room temperature. Antigen-antibody complexes were visualized with secondary antibodies conjugated with fluorochromes. Specimens were analyzed using a Zeiss confocal microscope (Germany). Ultrathin sections of the kidneys were examined with a Philips CM10 electron microscope (The Netherlands). The number of podocytic FPs was counted in 10 different areas of representative glomeruli. In each area, the number of FPs was calculated within a distance of 1 μm on the GBM (34).
# Animals and treatments: All animal studies were performed under protocols approved by the University of Miami animal care and use committee. C57BL/6 mice were obtained from The Jackson Laboratory. The mouse model LPS-induced proteinuria was utilized as previously described (16). Glutamine (Invitrogen) is injected i.p. (0.75 mg/g mouse) 10 min after LPS ([…]) (Sigma Aldrich, St. Louis, Mo.) injection.
# [8] = tested on: wt podocytes; experiment: F-actin cytoskeleton staining of cultured podocytes; assay type: cell-based, mouse; conditions: wt podocytes after LPS treatment, glutamine in medium vs absent
# Protocol: The absence of cathepsin L protected from LPS-mediated loss of F-actin.
# as §2, §3
structure (smiles),measurement,setting,value
"CN(C)c1ncnc2c1ncn2[C@@H]1O[C@H](CO)[C@@H](N)[C@H]1O [PAN, puromycin aminonucleoside]",glutamine uptake rate,[1],increasing glutamine uptake rate
same,glutamine uptake rate,[2],increasing glutamine uptake rate
same,glutamine uptake rate,[3],stimulated
same,cathepsin L activity in podocytes,[4]; effect of the injury stimulus itself,stimulate
"O=C(NC(Cc1ccccc1)C(=O)NC(Cc1ccccc1)C(=O)CF)OCc1ccccc1 (stereo not drawn) [Z-FF-FMK, Z-Phe-Phe-FMK] (Cbz-Phe-Phe-CH2F; configuration not given here)",inhibition of cathepsin B,[5],does not inhibit
NC(=O)CC[C@H](N)C(=O)O [glutamine],podocyte cytosolic pH (CMFDA fluorescence),[6],alkalinizes; also recorded: more alkaline cytosolic pH
same,podocyte foot process effacement (electron microscopy),[7]; LPS-treated mice with glutamine vs LPS only,protects; also recorded: decreased foot process effacement
same,glomerular pH (CMFDA fluorescence of isolated glomeruli),[7]; LPS-treated mice,increase in CMFDA fluorescence; also recorded: glomerular alkalinization; also recorded: increased alkalinity
same,proteinuria (urinary protein/creatinine ratio),"[7]; LPS-treated mice, glutamine 0.75 mg/g i.p., 24 h",ameliorates; also recorded: significant lower
same,glomerular pH (CMFDA fluorescence of isolated glomeruli),"[7]; LPS-treated mice, listed as Glutamine",increase in CMFDA fluorescence
same,F-actin presence,[8],improved F-actin presence
same,cathepsin L activity in podocytes,"[4]; high glutamine in cell culture media, LPS or PAN treated podocytes",lower

# From patent US9205135B2, “Podocyte pH modulation and uses thereof” (University of Miami, priority 2009, dated 2015)
